Here are results for one compound from US8088819B2, “Derivatives of substituted 3-phenyl-1-(phenylthienyl)propan-1-ones and of 3-phenyl-1-(phenylfuranyl) propan-1-ones, preparation and use” (priority 2006, dated 2012).

The test system of test [1] is target genes of the PPARs. As to the kind of experiment: Expression of target genes of the PPARs in liver and skeletal muscle of the E2/E2 mouse, quantitative RT-PCR. It counts as in vivo. The conditions noted are these: 50 mpk, 13 days. An excerpt:
The PPARα agonistic properties of the molecules according to the invention previously measured in vitro must be reflected at the hepatic level in a modulation of the expression of the target genes directly under the control of the PPARα receptor. The genes that were investigated in this experiment are the genes coding for PDK4 (pyruvate dehydrogenase kinase isoform 4, enzyme of carbohydrate metabolism), for AcoX1 (the AcoX1 present in the mouse corresponds to the gene of ACO in humans (acyl co-enzyme A oxidase, a key enzyme in the mechanism of the β-oxidation of fatty acids)) and for Apo CIII (an apolipoprotein involved in lipid metabolism).
The PPARδ agonistic properties of the molecules according to the invention previously measured in vitro should also be reflected, at the level of the skeletal muscle, in overexpression of the target genes directly under the control of the PPARδ receptor. The genes that were investigated in this experiment are the genes coding for PDK4 (pyruvate dehydrogenase kinase isoform 4, enzyme of carbohydrate metabolism) and UCP2 (uncoupling protein 2, mitochondrial transporter involved in thermoregulation).
(§1) Apo E2/E2 transgenic mice were kept under a cycle of light and darkness of 12/12 hours at a constant temperature of 20±3° C. After acclimation for one week, the mice were weighed and put into groups of 6 animals selected so that the distribution of their body weights and of their plasma lipid levels determined for the first time before the experiment are uniform. The test compounds were suspended in carboxymethylcellulose (Sigma C4888) and administered by intragastric force feeding, at a rate of once per day for 13 days at the chosen dose. The animals had free access to water and to food (standard diet). At the end of the experiment, the animals were anesthetized after fasting for 4 hours, a blood sample was taken using anticoagulant (EDTA), then the mice were weighed and euthanased. The plasma was separated by centrifugation at 3000 rev/min for 20 minutes, and the samples were stored at +4° C.
Samples of liver and of skeletal muscle tissue were taken and frozen immediately in liquid nitrogen and then stored at −80° C. for later analyses.
The total RNA was extracted from fragments of liver using the NucleoSpin® 96 RNA kit (Macherey Nagel, Hoerdt, France) following the manufacturer's instructions. […]
1 μg of total RNA (quantified by spectrophotometry) was then reverse-transcribed to complementary DNA by reaction for 1 hour at 37° C. in a total volume of 30 μl containing buffer 1× (Invitrogen), 1.5 mM of DTT, 0.18 mM of dNTPs (Promega), 200 ng of pdN6 (Amersham), 30 U of RNase inhibitor (Promega) and 1 μl of MMLV-RT (Invitrogen).
The quantitative PCR experiments were carried out using the MyiQ Single-Color Real-Time PCR Detection System (Biorad, Marnes-la-Coquette, France) and were performed using the iQ SYBR Green Supermix kit following the supplier's recommendations, in 96-well plates, on 5 μl of diluted reverse transcription reaction mixture with a hybridization temperature of 60° C. […]
In both cases (hepatic tissue and skeletal muscle tissue), the amount of fluorescence emitted is directly proportional to the amount of complementary DNA present at the start of the reaction and amplified during PCR. […] The relative expression levels of each target are thus determined using the efficacy curves obtained with the points in the range. […]

The subject of another test is C57Bl6 mouse. As to the kind of experiment: Plasma lipid assays in the C57Bl6 mouse, compound 2 at dose effect. The class given is in vivo. How it is done:
The effect of compound 2, administered at dose effect, is evaluated in vivo in the C57Bl6 mouse after 14 days of treatment by the oral route. At the end of the treatment, the antilipemic effect of compound 2 is evaluated by measuring the plasma levels of total cholesterol, of HDL-cholesterol, of triglycerides and of free fatty acids.
as §1, with “Female C57Bl6” for “Apo E2/E2 transgenic”, “weight,” for “weights and”, “levels and of total cholesterol” for “levels”, “experiment, is” for “experiment are”, “14” for “13”, “hours. A” for “hours, a”
Plasma concentrations of total cholesterol and of triglycerides were measured by enzyme assays (bioMérieux-Lyon-France) following the supplier's recommendations.
Low-density lipoproteins (VLDL and LDL) were precipitated with phosphotungstate. The precipitate was removed by centrifugation. The HDL-cholesterol present in the supernatant was quantified by enzyme assays (bioMérieux-Lyon-France) following the supplier's recommendations.
Plasma concentrations of free fatty acids were measured by enzyme assays (WACO chemicals) following the supplier's recommendations.

Each structure is given as a SMILES string.

Regarding `CC(C)(Oc1ccc(CCC(=O)c2ccc(-c3ccc(C(F)(F)F)cc3)s2)c(Cl)c1Cl)C(=O)O` [Compound 2, 2-(2,3-dichloro-4-(3-oxo-3-(5-(4-(trifluoromethyl)phenyl)thien-2-yl)propyl)phenoxy)-2-methylpropanoic acid], in test [1] (liver), the “hepatic expression of the gene coding for AcoX1” value is “significant increase”, the “hepatic expression of the gene coding for ApoCIII” value is “decrease” and the “hepatic expression of the gene coding for PDK4” value is reported as “significant increase”. Further, in test [1] (skeletal muscle), the “expression of the gene coding for PDK4 in the skeletal muscle” value is given as “significant increase” and the “expression of the gene coding for UCP2 in the skeletal muscle” value is “significant increase”. For the same compound, in the test on C57Bl6 mouse (C57Bl6 mice treated for 14 days), the lipid profile entry is recorded as “improves”. In addition, the plasma triglyceride levels entry in the test with C57Bl6 mouse (C57Bl6 mouse, 14 days oral, 1, 5, 10 and 50 mpk, significant effect at 50 mpk) is recorded as “dose-dependent decrease”. In the test on C57Bl6 mouse (C57Bl6 mouse, 14 days oral, at 5 and 50 mpk (tested 1, 5, 10 and 50 mpk)), the “plasma total cholesterol levels” value is “significantly increased”. The “plasma HDL-cholesterol levels” value in the test with C57Bl6 mouse (C57Bl6 mouse, 14 days oral, dose-dependent manner starting from 1 mpk) was “significantly increased”. In addition, the “plasma levels of free fatty acids” value in the test with C57Bl6 mouse (C57Bl6 mouse, 14 days oral, starting from 10 mpk) was “lowered significantly”.
